Columns and labels:
[1] = target: T1, NS3-NS4A protease (Hepatitis C virus genotype 1a, UniProt P27958); test: NS3-NS4A protease assay (NS3 inhibition assay, RETS1 substrate), Section B; format: biochemical; settings: read-out: NS3-NS4A IC50
T1 construct: Recombinant E. coli or Baculovirus full-length NS3 was diluted to 3.33 μM with assay buffer; made in house; host or cells: E. coli or baculovirus (BV) system
Summary of the method: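 Kinetic fluorescence read (335 nm excitation, 495 nm emission, 30 min) of RETS1 cleavage by NS3/NS4A-2 complex, 2 nM E. coli or 3 nM baculovirus NS3, after 10 min room-temperature compound pre-incubation. Four-parameter-fit IC50s converted to Ki by Cheng–Prusoff, Ki=IC50/(1+[S]/Km).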

[2] = system: HCV sub-genomic replicon, GS4.3; test: Quantitation by ELISA of NPTII in the HCV sub-genomic replicon, GS4.3, Section B; format: cell-based; settings: Hepatitis C virus; GS4.3 cells, 72 h incubation; read-out: Replicon EC50
Summary of the method: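 NPTII marker protein in lysates was quantified by ELISA read at 450 nm after 72 h inhibitor exposure (3-fold series, final DMSO 1%, G418-free medium) of HuH-7 cells stably harbouring the subgenomic HCV replicon. Values relative to DMSO-treated controls; 4-parameter curves gave EC50.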

T1 sequence (P27958 1027-1657): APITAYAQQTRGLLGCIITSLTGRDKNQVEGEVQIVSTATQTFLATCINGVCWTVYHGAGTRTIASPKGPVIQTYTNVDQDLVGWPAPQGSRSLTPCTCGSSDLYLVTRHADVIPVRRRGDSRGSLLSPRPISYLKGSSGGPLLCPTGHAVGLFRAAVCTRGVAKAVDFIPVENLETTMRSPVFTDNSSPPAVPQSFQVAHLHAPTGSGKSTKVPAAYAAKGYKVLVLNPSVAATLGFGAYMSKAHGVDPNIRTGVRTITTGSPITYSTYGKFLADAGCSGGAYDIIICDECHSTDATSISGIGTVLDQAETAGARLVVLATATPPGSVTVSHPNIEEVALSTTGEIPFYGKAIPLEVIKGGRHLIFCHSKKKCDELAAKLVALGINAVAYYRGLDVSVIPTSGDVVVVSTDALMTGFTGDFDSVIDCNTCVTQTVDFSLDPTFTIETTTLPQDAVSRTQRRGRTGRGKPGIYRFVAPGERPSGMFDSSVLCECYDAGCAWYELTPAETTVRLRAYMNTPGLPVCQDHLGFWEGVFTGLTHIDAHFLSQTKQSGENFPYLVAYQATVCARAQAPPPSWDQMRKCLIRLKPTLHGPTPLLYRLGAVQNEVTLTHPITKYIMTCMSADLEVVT

SMILES	IC50 [1]	EC50 [2]
CC(C)(C)OC(=O)N[C@H]1CCCCC/C=C\[C@@H]2C[C@@]2(C(=O)NS(=O)(=O)c2ccc([N+](=O)[O-])cc2)NC(=O)[C@@H]2C[C@@H](OC(=O)N3Cc4ccccc4C3)CN2C1=O [AR00334249, (1S,4R,6S,14S,18R)-1,3-Dihydro-isoindole-2-carboxylic acid 14-tert-butoxycarbonylamino-4-(4-nitro-benzenesulfonylaminocarbonyl)-2,15-dioxo-3,16-diaza-tricyclo[14.3.0.0^4,6]nonadec-7-en-18-yl ester]	< 100 nM	< 1000 nM
O=C(N[C@H]1CCCCCC=C[C@@H]2C[C@@]2(C(=O)NS(=O)(=O)C2CC2)NC(=O)[C@@H]2C[C@@H](OC(=O)N3Cc4ccccc4C3)CN2C1=O)OC1CCCC1 [AR00333831, (1S,4R,6S,14S,18R)-1,3-Dihydro-isoindole-2-carboxylic acid 14-cyclopentyloxycarbonylamino-4-cyclopropanesulfonylaminocarbonyl-2,15-dioxo-3,16-diaza-tricyclo[14.3.0.0^4,6]nonadec-7-en-18-yl ester]	< 100 nM	< 100 nM
COCC1c2ccc(OC)cc2CCN1C(=O)O[C@@H]1CC2C(=O)N[C@]3(C(=O)NS(=O)(=O)C4CC4)C[C@H]3/C=C\CCCCC[C@H](NC(=O)OC(C)(C)C)C(=O)N2C1 (stereo partly drawn) [AR00334339, (1S,4R,6S,14S,18R)-6-Methoxy-1-methoxymethyl-3,4-dihydro-1H-isoquinoline-2-carboxylic acid 14-tert-butoxycarbonylamino-4-cyclopropanesulfonylaminocarbonyl-2,15-dioxo-3,16-diaza-tricyclo[14.3.0.0^4,6]nonadec-7-en-18-yl ester]	< 100 nM	< 100 nM
O=C(N[C@H]1CCCCC/C=C\[C@@H]2C[C@@]2(C(=O)O)NC(=O)[C@@H]2C[C@@H](OC(=O)N3CCc4ccccc4C3)CN2C1=O)O[C@H]1CCOC1 [AR00304126, (1S,4R,6S,14S,18R)-18-(3,4-Dihydro-1H-isoquinoline-2-carbonyloxy)-2,15-dioxo-14-(tetrahydro-furan-3S-yloxycarbonylamino)-3,16-diaza-tricyclo[14.3.0.0^4,6]nonadec-7-ene-4-carboxylic acid]	< 1000 nM	< 10000 nM
CC(C)(C)NC(=O)N[C@H]1CCCCC/C=C\[C@@H]2C[C@@]2(C(=O)NS(=O)(=O)C2CC2)NC(=O)[C@@H]2C[C@@H](OC(=O)N3Cc4ccccc4C3)CN2C1=O [AR00320220, (1S,4R,6S,14S,18R)-1,3-Dihydro-isoindole-2-carboxylic acid 14-(3-tert-butyl-ureido)-4-cyclopropanesulfonylaminocarbonyl-2,15-dioxo-3,16-diaza-tricyclo[14.3.0.0^4,6]nonadec-7-en-18-yl ester]	< 100 nM	< 100 nM
CC(C)(C)OC(=O)N[C@H]1CCCCCC=C[C@@H]2C[C@@]2(C(=O)NS(=O)(=O)C2CC2)NC(=O)[C@@H]2C[C@@H](OC(=O)N3Cc4ccccc4C(C)(C)C3)CN2C1=O [AR00312025, (1S,4R,6S,14S,18R)-4,4-Dimethyl-3,4-dihydro-1H-isoquinoline-2-carboxylic acid 14-tert-butoxycarbonylamino-4-cyclopropanesulfonylaminocarbonyl-2,15-dioxo-3,16-diaza-tricyclo[14.3.0.0^4,6]nonadec-7-en-18-yl ester]	< 100 nM	< 100 nM
COCC1c2cccc(F)c2CCN1C(=O)O[C@@H]1CC2C(=O)N[C@]3(C(=O)NS(=O)(=O)C4CC4)C[C@H]3/C=C\CCCCC[C@H](NC(=O)OC(C)(C)C)C(=O)N2C1 (stereo partly drawn) [AR00365193, (1S,4R,6S,14S,18R)-5-Fluoro-1-methoxymethyl-3,4-dihydro-1H-isoquinoline-2-carboxylic acid 14-tert-butoxycarbonylamino-4-cyclopropanesulfonylaminocarbonyl-2,15-dioxo-3,16-diaza-tricyclo[14.3.0.0^4,6]nonadec-7-en-18-yl ester]	< 100 nM	< 100 nM
CC(C)(C)OC(=O)N[C@H]1CCCCC/C=C\[C@@H]2C[C@@]2(C(=O)NS(=O)(=O)C2CC2)NC(=O)[C@@H]2C[C@@H](OC(=O)N3Cc4ccc(OCCN5CCOCC5)cc4C3)CN2C1=O [AR00345090, (1S,4R,6S,14S,18R)-5-(2-Morpholin-4-yl-ethoxy)-1,3-dihydro-isoindole-2-carboxylic acid 14-tert-butoxycarbonylamino-4-cyclopropanesulfonylaminocarbonyl-2,15-dioxo-3,16-diaza-tricyclo[14.3.0.0^4,6]nonadec-7-en-18-yl ester]	< 100 nM	< 100 nM
CN(C)c1cccc2c1CCN(C(=O)O[C@@H]1C[C@H]3C(=O)N[C@]4(C(=O)NS(=O)(=O)C5CC5)C[C@H]4/C=C\CCCCC[C@H](NC(=O)OC(C)(C)C)C(=O)N3C1)C2 [AR00320120, (1S,4R,6S,14S,18R)-5-Dimethylamino-3,4-dihydro-1H-isoquinoline-2-carboxylic acid 14-tert-butoxycarbonylamino-4-cyclopropanesulfonylaminocarbonyl-2,15-dioxo-3,16-diaza-tricyclo[14.3.0.0^4,6]nonadec-7-en-18-yl ester]	< 100 nM	< 100 nM
CC(C)(C)OC(=O)N[C@H]1CCCCC/C=C\[C@@H]2C[C@@]2(C(=O)NS(=O)(=O)C2CC2)NC(=O)[C@@H]2C[C@@H](OC(=O)N3Cc4ccccc4C3)CN2C1=O [AR00294381, (1S,4R,6S,14S,18R)-1,3-Dihydro-isoindole-2-carboxylic acid 14-tert-butoxycarbonylamino-4-cyclopropanesulfonylaminocarbonyl-2,15-dioxo-3,16-diaza-tricyclo[14.3.0.0^4,6]nonadec-7-en-18-yl ester]	< 100 nM	< 100 nM
O=C(CC1CCCC1)N[C@H]1CCCCC/C=C\[C@@H]2C[C@@]2(C(=O)NS(=O)(=O)C2CC2)NC(=O)[C@@H]2C[C@@H](OC(=O)N3Cc4ccc(Cl)cc4C3)CN2C1=O [AR00334226, (1S,4R,6S,14S,18R)-5-Chloro-1,3-dihydro-isoindole-2-carboxylic acid 14-(2-cyclopentyl-acetylamino)-4-cyclopropanesulfonylaminocarbonyl-2,15-dioxo-3,16-diaza-tricyclo[14.3.0.0^4,6]nonadec-7-en-18-yl ester]	< 100 nM	< 100 nM
CC(C)(C)OC(=O)N[C@H]1CCCCC/C=C\[C@@H]2C[C@@]2(C(=O)NS(=O)(=O)C2CC2)NC(=O)[C@@H]2C[C@@H](OC(=O)N3Cc4cccc(N)c4C3)CN2C1=O [AR00334385, (1S,4R,6S,14S,18R)-4-Amino-1,3-dihydro-isoindole-2-carboxylic acid 14-tert-butoxycarbonylamino-4-cyclopropanesulfonylaminocarbonyl-2,15-dioxo-3,16-diaza-tricyclo[14.3.0.0^4,6]nonadec-7-en-18-yl ester]	< 100 nM	< 100 nM
O=C(N[C@H]1CCCCC/C=C\[C@@H]2C[C@@]2(C(=O)O)NC(=O)[C@@H]2C[C@@H](OC(=O)N3Cc4ccccc4C3)CN2C1=O)O[C@H]1CCOC1 [AR00320075, (1S,4R,6S,14S,18R)-18-(1,3-Dihydro-isoindole-2-carbonyloxy)-2,15-dioxo-14-(tetrahydro-furan-3S-yloxycarbonylamino)-3,16-diaza-tricyclo[14.3.0.0^4,6]nonadec-7-ene-4-carboxylic acid]	< 1000 nM	< 10000 nM
Cn1c(C(=O)O)ccc1S(=O)(=O)NC(=O)[C@@]12C[C@H]1/C=C\CCCCC[C@H](NC(=O)OC(C)(C)C)C(=O)N1C[C@H](OC(=O)N3Cc4ccccc4C3)C[C@H]1C(=O)N2 [AR00364266, (1S,4R,6S,14S,18R)-1,3-Dihydro-isoindole-2-carboxylic acid 14-tert-butoxycarbonylamino-4-(5-carboxy-1-methyl-1H-pyrrole-2-sulfonylaminocarbonyl)-2,15-dioxo-3,16-diaza-tricyclo[14.3.0.0^4,6]nonadec-7-en-18-yl ester]	< 100 nM	< 1000 nM
C[C@@H]1CN(C(=O)O[C@@H]2C[C@H]3C(=O)N[C@]4(C(=O)O)C[C@H]4/C=C\CCCCC[C@H](NC(=O)OC(C)(C)C)C(=O)N3C2)Cc2ccccc21 [AR00320123, (1S,4R,6S,14S,18R)-14-tert-Butoxycarbonylamino-18-(4S-methyl-3,4-dihydro-1H-isoquinoline-2-carbonyloxy)-2,15-dioxo-3,16-diaza-tricyclo[14.3.0.0^4,6]nonadec-7-ene-4-carboxylic acid]	< 1000 nM	< 10000 nM
O=C(NC1CCCC1)N[C@H]1CCCCC/C=C\[C@@H]2C[C@@]2(C(=O)NS(=O)(=O)C2CC2)NC(=O)[C@@H]2C[C@@H](OC(=O)N3CCc4ccccc4C3)CN2C1=O [AR00320403, (1S,4R,6S,14S,18R)-3,4-Dihydro-1H-isoquinoline-2-carboxylic acid 14-(3-cyclopentyl-ureido)-4-cyclopropanesulfonylaminocarbonyl-2,15-dioxo-3,16-diaza-tricyclo[14.3.0.0^4,6]nonadec-7-en-18-yl ester]	< 100 nM	< 1000 nM
O=C(N[C@H]1CCCCC/C=C\[C@@H]2C[C@@]2(C(=O)O)NC(=O)[C@@H]2C[C@@H](OC(=O)N3Cc4ccc(Cl)cc4C3)CN2C1=O)O[C@@H]1CCOC1 [AR00320448, (1S,4R,6S,14S,18R)-18-(5-Chloro-1,3-dihydro-isoindole-2-carbonyloxy)-2,15-dioxo-14-(tetrahydro-furan-3R-yloxycarbonylamino)-3,16-diaza-tricyclo[14.3.0.0^4,6]nonadec-7-ene-4-carboxylic acid]	< 1000 nM	< 10000 nM

From patent US7491794B2, “Macrocyclic compounds as inhibitors of viral replication” (Intermune, Inc., priority 2003, dated 2009)
